The target of assay [1] is T1, Cyclin-dependent kinase 2 (Homo sapiens, UniProt P24941). The assay is described as follows: Inhibition of CDK2.
The target of assay [2] is T1, Cyclin-dependent kinase 2. The assay is described as follows: Inhibition of CDK2 at 50 uM.
In assay [3] the target is Cyclin-dependent kinase 1 (Homo sapiens, UniProt P06493). The assay is described as follows: Inhibition of CDC2.
Assay [4] relates to MCF7. The experiment in a line: Antiproliferative activity against human MCF7 cells by clonogenicity assay. Format: functional, cell-based.
The target of assay [5] is Cyclin-dependent kinase 4 (Homo sapiens, UniProt P11802). The experiment in a line: Inhibition of CDK4.
Assay [6] in a line: Inhibition of MAPK.
Assay [7] deals with T2, Aurora kinase A (Homo sapiens, UniProt O14965).
T2 sequence (O14965 whole entry): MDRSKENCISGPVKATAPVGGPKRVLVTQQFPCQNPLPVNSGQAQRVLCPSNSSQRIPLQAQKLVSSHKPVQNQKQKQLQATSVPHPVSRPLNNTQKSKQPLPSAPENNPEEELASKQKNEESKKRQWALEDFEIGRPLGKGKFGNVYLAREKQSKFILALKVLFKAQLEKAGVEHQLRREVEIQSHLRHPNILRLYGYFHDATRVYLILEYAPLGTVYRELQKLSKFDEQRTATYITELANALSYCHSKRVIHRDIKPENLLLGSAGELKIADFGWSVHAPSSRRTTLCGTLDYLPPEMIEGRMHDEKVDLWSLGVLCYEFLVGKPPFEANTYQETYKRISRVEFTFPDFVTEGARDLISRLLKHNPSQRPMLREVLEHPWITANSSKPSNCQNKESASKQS
The experiment in a line: Inhibition of AUR2.

The subject of assay [8] is MCF7. The assay is described as follows: Antiproliferative activity against human MCF7 cells by soft agar growth assay. Format: functional, cell-based.

43 compounds from ChEMBL document CHEMBL1156890, “Semi-synthetic aristolactams--inhibitors of CDK2 enzyme” (Bioorg Med Chem Lett, 2010) can be followed below.

Structures are written as SMILES. pIC50: −log10 of the molar value. Active and inactive are the calls of the source. The calls are words filed in the database; no cut-off is given here.

Sequence of Cyclin-dependent kinase 1 (P06493 whole entry): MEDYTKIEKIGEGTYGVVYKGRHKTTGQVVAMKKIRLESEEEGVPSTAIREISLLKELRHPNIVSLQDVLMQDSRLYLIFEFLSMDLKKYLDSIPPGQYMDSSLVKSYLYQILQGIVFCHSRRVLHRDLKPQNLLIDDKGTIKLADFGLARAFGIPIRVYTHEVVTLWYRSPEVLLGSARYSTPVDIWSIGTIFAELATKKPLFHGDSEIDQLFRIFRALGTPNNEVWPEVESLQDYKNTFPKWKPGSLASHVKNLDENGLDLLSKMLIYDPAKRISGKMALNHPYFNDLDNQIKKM
Sequence of Cyclin-dependent kinase 4 (P11802 whole entry): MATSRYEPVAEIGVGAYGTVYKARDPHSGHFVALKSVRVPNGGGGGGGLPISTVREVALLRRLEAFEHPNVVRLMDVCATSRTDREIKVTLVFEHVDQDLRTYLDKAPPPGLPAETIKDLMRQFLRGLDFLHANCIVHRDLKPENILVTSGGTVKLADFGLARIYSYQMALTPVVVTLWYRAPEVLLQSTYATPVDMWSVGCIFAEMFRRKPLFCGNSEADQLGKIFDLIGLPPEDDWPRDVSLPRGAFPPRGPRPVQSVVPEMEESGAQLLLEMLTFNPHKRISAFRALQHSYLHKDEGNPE

As a reminder, the pIC50 is the negative decadic logarithm of the IC50, by convention in mol/L. The low end stands for a large IC50, the high end for a small IC50. As to `COc1ccc2cc([N+](=O)[O-])c3c(C(=O)O)cc4c(c3c2c1)OCO4`, the pIC50 in assay [1] is < 4.70. Moreover, in assay [2], the outcome was inactive.
`O=C1Nc2cc3ccc(O)cc3c3c4c(cc1c23)OCO4`: in assay [1], the pIC50 is 5.67.
For the compound `COc1cccc2c1c(Cl)c1c3c(cc(O)c(O)c32)C(=O)N1`, in assay [1], the pIC50 is 5.00. In assay [2], the outcome was inactive.
On to `COc1cccc2c1cc1c3c(cc4c(c32)OCO4)C(=O)N1C`, for which, in assay [1], the pIC50 was < 4.46. The result in assay [2] was inactive.
On to `COc1ccc2nc3[nH]nc(C)c3c(OC)c2c1`, for which the pIC50 in assay [3] was 6.70; in assay [4] it was 5.46; in assay [1] it was 7.70; in assay [5], 5.70; in assay [6] it was < 4.30; in assay [7], 5.30. The same compound showed a pIC50 in assay [8] of 5.70.
As to `O=C1Nc2c(Cl)c3ccccc3c3c(O)c(O)cc1c23`, the pIC50 in assay [1] was < 4.60. Also, the result in assay [2] was inactive.
As to `COc1cccc2c1cc([N+](=O)[O-])c1c(C(=O)O)cc(O)c(O)c12`, in assay [1], the pIC50 was < 4.52. In addition, the outcome in assay [2] was inactive.
Consider `O=C(O)c1cc(O)c(O)c2c1c([N+](=O)[O-])cc1c(O)cccc12`, for which the pIC50 in assay [1] was 5.24. In assay [2], the result was inactive.
In the case of `COC1=C[C@]23CCN(C)[C@H](Cc4ccc(OC)c(O)c42)C3=CC1=O` [SALUTARIDINE], the pIC50 in assay [1] was < 4.30.
In the case of `O=C1Nc2cc3ccccc3c3c4c(cc1c23)OCO4` [ARISTOLACTAM II], in assay [1], the negative logarithm of the IC50 (pIC50) is 4.82. The outcome in assay [2] was inactive.
`O=C(O)c1cc(O)c(O)c2c1c([N+](=O)[O-])c(Cl)c1ccccc12` had a pIC50 in assay [1] of 4.74. For the same compound, the outcome in assay [2] was inactive.
Take `O=C1Nc2cc3c(O)cc(O)cc3c3c4c(cc1c23)OCO4`: the negative logarithm of the IC50 (pIC50) in assay [1] was < 4.30. The result in assay [2] was inactive.
Consider `CN1C(=O)c2cc3c(c4c2c1cc1c(O)cccc14)OCO3`, for which the pIC50 in assay [1] was < 4.46. The result in assay [2] was inactive.
With `O=C1Nc2cc3c(O)cccc3c3c4c(cc1c23)OCO4`, the pIC50 in assay [3] is 6.67; in assay [1], 7.46; in assay [5] it was 5.85; in assay [6], 4.45; in assay [7], 5.67. Also, the result in assay [2] was inactive.
With `COc1cccc2c1c(Cl)c([N+](=O)[O-])c1c(C(=O)O)cc(O)c(O)c12`, the pIC50 in assay [1] is 4.78. Besides, the outcome in assay [2] was inactive.
For `COc1ccc2c(c1OC)CC1c3c(cc4c(c3-2)OCO4)CCN1C` (stereo unspecified) [CREBANINE], the pIC50 in assay [1] is < 4.30.
Still for that read-out and setting: the figure for `COc1ccc2c(c1O)-c1c(O)c(OC)cc3c1[C@H](C2)N(C)CC3` [CORYTUBERINE] is < 4.30.
As to `COc1c(O)ccc2c1cc([N+](=O)[O-])c1c(C(=O)O)cc3c(c12)OCO3` [7-HYDROXY ARISTOLOCHIC A], in assay [1], the pIC50 was 4.60. Further, the result in assay [2] was inactive.
For `COc1cc(O)cc2c1cc1c3c(cc4c(c32)OCO4)C(=O)N1`, the pIC50 in assay [1] was < 4.46. The result in assay [2] was inactive.
On to `O=C1Nc2cc3c(O)cccc3c3c(O)c(O)cc1c23`, for which the pIC50 in assay [1] is < 4.46. Moreover, the outcome in assay [2] was inactive.
Turning to `COc1c(O)ccc2c1cc1c3c(cc4c(c32)OCO4)C(=O)N1`, the pIC50 in assay [1] was 5.54.
`COc1ccc2c(c1O)-c1c(OC)c(OC)cc3c1[C@H](C2)N(C)CC3` [ISOCORYDINE]: the pIC50 in assay [1] was < 4.30.
Regarding `COc1cccc2c1cc([N+](=O)[O-])c1c(C(=O)O)cc3c(c12)OCO3` [ARISTOLOCHIC ACID], the pIC50 in assay [1] is < 4.70. Also, the result in assay [2] was inactive.
Regarding `COc1ccc2c(c1OC)CN1CCc3cc4c(cc3C1C2)OCO4` (stereo unspecified) [TETRAHYDROBERBERINE], the pIC50 in assay [1] is < 4.30.
In assay [1], `O=C(O)c1cc2c(c3c1c([N+](=O)[O-])cc1ccc(O)cc13)OCO2` [ARISTOLOCHIC ACID C] gave a pIC50 of 4.52. Further, the result in assay [2] was inactive.
As to `COc1cccc2c1C[C@@H]1c3c(cc4c(c3-2)OCO4)CCN1C` [STEPHANINE], in assay [1], the negative-log IC50 (pIC50) was < 4.30.
Regarding `COc1ccc2c(cc3c4c(cc5c(c42)OCO5)C(=O)N3)c1OC`, the pIC50 in assay [1] was < 4.82. In addition, the outcome in assay [2] was inactive.
`O=C(O)c1cc2c(c3c1c([N+](=O)[O-])cc1ccccc13)OCO2` [ARISTOLOCHIC ACID II]: the pIC50 in assay [1] was < 4.70. Also, the outcome in assay [2] was inactive.
As to `COc1cc2c3c(c1O)-c1c(ccc(OC)c1OC)C[C@@H]3N(C)CC2` [CORYDINE], the negative-log IC50 (pIC50) in assay [1] is < 4.30.
Turning to `COc1cc(OC)c2cc([N+](=O)[O-])c3c(C(=O)O)cc4c(c3c2c1)OCO4` [ARISTOLOCHIC ACID IV], in assay [1], the pIC50 was < 4.70. In addition, the outcome in assay [2] was inactive.
The compound `O=C(O)c1cc2c(c3c1c([N+](=O)[O-])cc1c(O)cccc13)OCO2` [ARISTOLOCHIC ACID III] had a pIC50 in assay [1] of 4.82. The outcome in assay [2] was inactive.
In the case of `COc1cc(OC)c2cc3c4c(cc5c(c4c2c1)OCO5)C(=O)N3`, in assay [1], the pIC50 is < 4.82. Moreover, the result in assay [2] was inactive.
Compound `O=C(O)c1cc(O)c(O)c2c1c([N+](=O)[O-])cc1ccccc12` had a pIC50 in assay [1] of 4.87. The result in assay [2] was inactive.
As for `O=C1Nc2cc3c(O)c(O)ccc3c3c4c(cc1c23)OCO4`, the negative logarithm of the IC50 (pIC50) in assay [1] was < 4.52. Besides, the outcome in assay [2] was inactive.
`COC1=C[C@@H]2[C@@H]3Cc4ccc(OC)c(O)c4[C@]2(CCN3C)CC1=O` [SINOMENINE]: the negative-log IC50 (pIC50) in assay [1] is < 4.30.
As for `COc1cc(O)cc2c1cc([N+](=O)[O-])c1c(C(=O)O)cc3c(c12)OCO3` [ARISTOLOCHIC D], in assay [1], the pIC50 is 4.60. In assay [2], the outcome was inactive.
Turning to `COc1cccc2c1cc1c3c(cc4c(c32)OCO4)C(=O)N1` [ARISTOLACTAM I], the pIC50 in assay [1] is 5.92.
Regarding `COc1cccc2c1cc1c3c(cc(O)c(O)c32)C(=O)N1`, the pIC50 in assay [1] is < 4.46. In addition, the result in assay [2] was inactive.
Consider `COc1c(O)cc2c3c(cc4ccc(O)cc4c13)NC2=O` [ARISTOLACTAM AIIIA], for which the pIC50 in assay [3] was 6.70; in assay [4] it was 5.52; in assay [5] it was 5.70; in assay [6] it was < 4.30; in assay [7], 5.30; in assay [8], < 8.00.
Take `COc1cc2c(cc1OC)-c1c3c(cc4c1[C@H](C2)N(C)CC4)OCO3` [DICENTRINE]: in assay [1], the pIC50 was < 4.30.
On to `O=C1Nc2cc3ccccc3c3c(O)c(O)cc1c23`, for which the pIC50 in assay [1] is < 4.46. Further, the outcome in assay [2] was inactive.
Consider `COc1cccc2c1c(OC)c([N+](=O)[O-])c1c(C(=O)O)cc3c(c12)OCO3` [7-METHOXY ARISTOLOCHIC ACID A], for which the pIC50 in assay [1] was < 4.70. Further, the result in assay [2] was inactive.
For the compound `CN1CCc2cc3c(c4c2[C@H]1Cc1ccccc1-4)OCO3` [ROEMERINE HBR], the pIC50 in assay [1] was < 4.30.
